Experimental data: PubChem BioAssay (NCI)
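These data come from cells grown in 96-well plates and exposed to compound for 48 hours at five concentrations. TGI is the concentration that stops growth completely.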

How the values were obtained:
Test in all cases: growth of human tumour cells (NCI), 48 h
U251 CNS = test system: U251 CNS
NCI-H522 lung = test system: NCI-H522 lung
OVCAR-3 ovarian = test system: OVCAR-3 ovarian
HCT-116 colon = test system: HCT-116 colon
HL-60(TB) leukemia = test system: HL-60(TB) leukemia
OVCAR-8 ovarian = test system: OVCAR-8 ovarian
HT29 colon = test system: HT29 colon
OVCAR-5 ovarian = test system: OVCAR-5 ovarian
A498 renal = test system: A498 renal
MDA-MB-231 breast = test system: MDA-MB-231 breast
CAKI-1 renal = test system: CAKI-1 renal
RXF 393 renal = test system: RXF 393 renal
CCRF-CEM leukemia = test system: CCRF-CEM leukemia
ACHN renal = test system: ACHN renal
SN12C renal = test system: SN12C renal
786-0 renal = test system: 786-0 renal
SK-MEL-2 melanoma = test system: SK-MEL-2 melanoma
IGROV1 ovarian = test system: IGROV1 ovarian
KM12 colon = test system: KM12 colon
SK-OV-3 ovarian = test system: SK-OV-3 ovarian
OVCAR-4 ovarian = test system: OVCAR-4 ovarian
EKVX NSCLC = test system: EKVX NSCLC
HCT-15 colon = test system: HCT-15 colon
LOX IMVI melanoma = test system: LOX IMVI melanoma
HS 578T breast = test system: HS 578T breast
SNB-75 CNS = test system: SNB-75 CNS
MDA-N = test system: MDA-N
UACC-62 melanoma = test system: UACC-62 melanoma
M14 melanoma = test system: M14 melanoma
DU-145 prostate = test system: DU-145 prostate
HOP-92 NSCLC = test system: HOP-92 NSCLC
COLO 205 colon = test system: COLO 205 colon
RPMI-8226 leukemia = test system: RPMI-8226 leukemia
T-47D breast = test system: T-47D breast
UACC-257 melanoma = test system: UACC-257 melanoma
SNB-19 CNS = test system: SNB-19 CNS
A549 NSCLC = test system: A549 NSCLC
MOLT-4 leukemia = test system: MOLT-4 leukemia
NCI/ADR-RES ovarian = test system: NCI/ADR-RES ovarian
PC-3 prostate = test system: PC-3 prostate
UO-31 renal = test system: UO-31 renal
HCC-2998 colon = test system: HCC-2998 colon
SK-MEL-28 melanoma = test system: SK-MEL-28 melanoma
K-562 leukemia = test system: K-562 leukemia
SF-295 CNS = test system: SF-295 CNS
SW-620 colon = test system: SW-620 colon
HOP-62 NSCLC = test system: HOP-62 NSCLC
SF-268 CNS = test system: SF-268 CNS
NCI-H460 lung = test system: NCI-H460 lung
SK-MEL-5 melanoma = test system: SK-MEL-5 melanoma
MCF7 breast = test system: MCF7 breast
TK-10 renal = test system: TK-10 renal
MALME-3M melanoma = test system: MALME-3M melanoma
BT-549 breast = test system: BT-549 breast
MDA-MB-435 = test system: MDA-MB-435
NCI-H23 lung = test system: NCI-H23 lung

Question: What does the source list for `CC(=O)OCC1OC(Oc2cc(C)c(O)cc2C/C=C(\C)CC/C=C(\C)C[C@@H](C=C(C)C)OC(C)=O)C(O)C(OC(C)=O)C1OC(C)=O` (stereo partly specified)?
Answer: TGI (U251 CNS): > 50 µM; TGI (NCI-H522 lung): > 50 µM; TGI (OVCAR-3 ovarian): > 50 µM; TGI (HCT-116 colon): > 50 µM; TGI (HL-60(TB) leukemia): 21 µM; TGI (OVCAR-8 ovarian): > 50 µM; TGI (HT29 colon): > 50 µM; TGI (OVCAR-5 ovarian): > 50 µM; TGI (A498 renal): 41.9 µM; TGI (MDA-MB-231 breast): > 50 µM; TGI (CAKI-1 renal): > 50 µM; TGI (RXF 393 renal): 34.4 µM; TGI (CCRF-CEM leukemia): 29.4 µM; TGI (ACHN renal): > 50 µM; TGI (SN12C renal): > 50 µM; TGI (786-0 renal): > 50 µM; TGI (SK-MEL-2 melanoma): > 50 µM; TGI (IGROV1 ovarian): > 50 µM; TGI (KM12 colon): > 50 µM; TGI (SK-OV-3 ovarian): > 50 µM; TGI (OVCAR-4 ovarian): > 50 µM; TGI (EKVX NSCLC): > 50 µM; TGI (HCT-15 colon): > 50 µM; TGI (LOX IMVI melanoma): 47.3 µM; TGI (HS 578T breast): 39.2 µM; TGI (SNB-75 CNS): 48.2 µM; TGI (MDA-N): > 50 µM; TGI (UACC-62 melanoma): > 50 µM; TGI (M14 melanoma): > 50 µM; TGI (DU-145 prostate): > 50 µM; TGI (HOP-92 NSCLC): > 50 µM; TGI (COLO 205 colon): 16.8 µM; TGI (RPMI-8226 leukemia): 24.1 µM; TGI (T-47D breast): 30.7 µM; TGI (UACC-257 melanoma): 39.8 µM; TGI (SNB-19 CNS): > 50 µM; TGI (A549 NSCLC): > 50 µM; TGI (MOLT-4 leukemia): 20.5 µM; TGI (NCI/ADR-RES ovarian): > 50 µM; TGI (PC-3 prostate): > 50 µM; TGI (UO-31 renal): > 50 µM; TGI (HCC-2998 colon): 41.2 µM; TGI (SK-MEL-28 melanoma): > 50 µM; TGI (K-562 leukemia): 35.4 µM; TGI (SF-295 CNS): > 50 µM; TGI (SW-620 colon): > 50 µM; TGI (HOP-62 NSCLC): > 50 µM; TGI (SF-268 CNS): > 50 µM; TGI (NCI-H460 lung): > 50 µM; TGI (SK-MEL-5 melanoma): 18.7 µM; TGI (MCF7 breast): > 50 µM; TGI (TK-10 renal): > 50 µM; TGI (MALME-3M melanoma): > 50 µM; TGI (BT-549 breast): > 50 µM; TGI (MDA-MB-435): > 50 µM; TGI (NCI-H23 lung): > 50 µM
